These results are taken from PubChem BioAssay AID342 (DTP/NCI, 2004).

The test system of the assay is Swiss mice, Sarcoma 180 sc, mean tumor weight T/C. Nature of the assay: NCI In Vivo Anticancer Drug Screen. Data for tumor model Sarcoma 180 (subcutaneous) in Swiss mice. Conditions: endpoint: mean tumor weight, higher = larger tumour. Summed up:
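Mice bearing transplanted tumors were treated with compound, and survival or tumor size was measured. Values are expressed as the treated-group measurement (T) divided by the vehicle-treated control measurement (C).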

The mark [1] stands for this setting: dose: 100.0 mg/kg/injection, schedule: Q01DX007 (ip), vehicle: saline.

Several values for one entry are separate records, joined by “and”; a condition that tells them apart may be missing. Equal values may be shown once.

As usually defined, the T/C is the result in the treated group divided by that in the control group, in per cent.

`CN(C)[C@@H]1C(=O)C(C(=O)NCNCCCC(=O)O)=C(O)[C@@]2(O)C(=O)C3=C(O)c4c(O)cccc4[C@@](C)(O)[C@H]3C[C@@H]12`: the T/C (dose: 111.0 mg/kg/injection, schedule: Q#A X014 (ip), vehicle: saline) was 97 % of control and 112 % of control; the T/C (dose: 166.5 mg/kg/injection, schedule: Q#A X014 (ip), vehicle: saline) was 101 % of control and 105 % of control; the T/C (dose: 250.0 mg/kg/injection, schedule: Q#A X014 (ip), vehicle: saline) was 52 % of control.
Take `COc1ccc2c(=O)cc(-c3ccccc3)n(C)c2c1`: the T/C was 68 % of control (dose: 50.0 mg/kg/injection, schedule: Q01DX007 (ip), vehicle: saline); 110 % of control under setting [1]; 109 % of control (dose: 200.0 mg/kg/injection, schedule: Q01DX007 (ip), vehicle: saline); 76 % of control (dose: 400.0 mg/kg/injection, schedule: Q01DX007 (ip), vehicle: saline).
Consider `CC(=O)OCC(=O)C1(O)C(C)CC2C3C=C(C)C4=Cc5c(cnn5-c5ccccc5)CC4(C)C3C(O)CC21C` (stereo not drawn), for which the T/C is, setting by setting: (dose: 0.16 mg/kg/injection, schedule: Q01DX007 (sc), vehicle: steriod suspending solution) 115 % of control; (dose: 0.25 mg/kg/injection, schedule: Q01DX007 (sc), vehicle: steriod suspending solution) 39 % of control and 42 % of control; (dose: 8.0 mg/kg/injection, schedule: Q01DX007 (sc), vehicle: steriod suspending solution) 15 % of control.
As for `CC1C[C@@H]2[C@H]([C@@H](O)C[C@@]3(C)[C@H]2CC[C@]3(O)C(=O)CF)[C@@]2(C)CCC(=O)C=C12` (stereo partly drawn), the T/C is, setting by setting: (dose: 5.2 mg/kg/injection, schedule: Q01DX007 (sc), vehicle: steriod suspending solution) 106 % of control; (dose: 10.5 mg/kg/injection, schedule: Q01DX007 (sc), vehicle: steriod suspending solution) 105 % of control; (dose: 21.2 mg/kg/injection, schedule: Q01DX007 (sc), vehicle: steriod suspending solution) 81 % of control; (dose: 42.5 mg/kg/injection, schedule: Q01DX007 (sc), vehicle: steriod suspending solution) 45 % of control; (dose: 62.0 mg/kg/injection, schedule: Q#A X014 (sc), vehicle: steriod suspending solution) 55 % of control and 57 % of control; (dose: 85.0 mg/kg/injection, schedule: Q01DX007 (sc), vehicle: steriod suspending solution) 25 % of control. Moreover, the T/C was 36 % of control and 41 % of control and 50 % of control (dose: 93.5 mg/kg/injection, schedule: Q#A X014 (sc), vehicle: steriod suspending solution); 38 % of control and 52 % of control (dose: 210.75 mg/kg/injection, schedule: Q#A X014 (sc), vehicle: steriod suspending solution); 26 % of control (dose: 300.0 mg/kg/injection, schedule: Q01DX007 (sc), vehicle: steriod suspending solution); 20 % of control (dose: 600.0 mg/kg/injection, schedule: Q01DX007 (sc), vehicle: steriod suspending solution).
`O=[n+]1c2c(n([O-])c3ccccc31)-c1cccc3cccc-2c13`: the T/C by setting is: (dose: 41.0 mg/kg/injection, schedule: Q01DX007 (ip), vehicle: carboxymethylcellulose (CMC)) 69 % of control; (dose: 210.0 mg/kg/injection, schedule: Q01DX007 (ip), vehicle: carboxymethylcellulose (CMC)) 10 % of control; (dose: 315.0 mg/kg/injection, schedule: Q01DX007 (ip), vehicle: carboxymethylcellulose (CMC)) 25 % of control.
Consider `O=C(O)c1ccccc1C(=O)OCc1ccccc1`, for which the T/C (dose: 500.0 mg/kg/injection, schedule: Q01DX007 (ip), vehicle: carboxymethylcellulose (CMC)) was 72 % of control.
Regarding `CC(=O)OCC(=O)[C@@]1(O)CC[C@H]2[C@@H]3C[C@H](C)C4=CC(=O)C=C[C@]4(C)[C@H]3[C@@H](O)C[C@@]21C`, the T/C was 122 % of control (dose: 7.5 mg/kg/injection, schedule: Q01DX007 (sc), vehicle: steriod suspending solution); 59 % of control (dose: 10.0 mg/kg/injection, schedule: Q01DX007 (sc), vehicle: steriod suspending solution); 93 % of control (dose: 11.3 mg/kg/injection, schedule: Q01DX007 (sc), vehicle: steriod suspending solution); 55 % of control (dose: 20.0 mg/kg/injection, schedule: Q01DX007 (sc), vehicle: steriod suspending solution); 41 % of control (dose: 27.0 mg/kg/injection, schedule: Q01DX007 (sc), vehicle: steriod suspending solution); 34 % of control (dose: 40.0 mg/kg/injection, schedule: Q01DX007 (sc), vehicle: steriod suspending solution). Further, the T/C was 26 % of control (dose: 44.4 mg/kg/injection, schedule: Q01DX007 (sc), vehicle: steriod suspending solution); 39 % of control (dose: 66.6 mg/kg/injection, schedule: Q01DX007 (sc), vehicle: steriod suspending solution); 40 % of control (dose: 100.0 mg/kg/injection, schedule: Q01DX007 (sc), vehicle: steriod suspending solution).
In the case of `CN(C)c1ccc(/C=C/c2ccnc3ccccc23)cc1`, the T/C runs as follows: (dose: 15.5 mg/kg/injection, schedule: Q01DX007 (ip), vehicle: water) 82 % of control; (dose: 62.0 mg/kg/injection, schedule: Q01DX007 (ip), vehicle: carboxymethylcellulose (CMC)) 86 % of control.
For the molecule `O=P(N1CCCC1)(N1CC1)N1CC1`, the T/C is, setting by setting: (dose: 1.0 mg/kg/injection, schedule: Q#A X014 (ip), vehicle: saline) 50 % of control and 54 % of control; (dose: 1.3 mg/kg/injection, schedule: Q#A X014 (ip), vehicle: carboxymethylcellulose (CMC)) 76 % of control; (dose: 1.5 mg/kg/injection, schedule: Q#A X014 (ip), vehicle: saline) 10 % of control and 22 % of control; (dose: 2.0 mg/kg/injection, schedule: Q#A X014 (ip), vehicle: carboxymethylcellulose (CMC)) 66 % of control; (dose: 2.0 mg/kg/injection, schedule: Q#A X014 (ip), vehicle: saline) 15 % of control; (dose: 3.0 mg/kg/injection, schedule: Q#A X014 (ip), vehicle: carboxymethylcellulose (CMC)) 46 % of control. For the same molecule, the T/C runs as follows: (dose: 8.0 mg/kg/injection, schedule: Q01DX007 (ip), vehicle: carboxymethylcellulose (CMC)) 23 % of control; (dose: 12.0 mg/kg/injection, schedule: Q01DX007 (ip), vehicle: carboxymethylcellulose (CMC)) 11 % of control.
Take `CCCOP(=S)(N1CC1)N1CC1`: the T/C is 74 % of control (dose: 6.65 mg/kg/injection, schedule: Q#A X014 (ip), vehicle: methylcellulose (MC)); 80 % of control and 89 % of control (dose: 6.65 mg/kg/injection, schedule: Q#A X014 (ip), vehicle: saline); 67 % of control (dose: 10.0 mg/kg/injection, schedule: Q#A X014 (ip), vehicle: methylcellulose (MC)); 47 % of control (dose: 15.0 mg/kg/injection, schedule: Q#A X014 (ip), vehicle: methylcellulose (MC)); 37 % of control and 40 % of control (dose: 15.0 mg/kg/injection, schedule: Q#A X014 (ip), vehicle: saline).
On to `C=CN1CCCC1=O`, for which the T/C is 106 % of control (dose: 93.0 mg/kg/injection, schedule: Q01DX007 (ip), vehicle: saline); 70 % of control (dose: 98.0 mg/kg/injection, schedule: Q01DX007 (ip), vehicle: saline); 57 % of control under setting [1]; 80 % of control (dose: 124.0 mg/kg/injection, schedule: Q01DX007 (ip), vehicle: saline); 65 % of control (dose: 148.0 mg/kg/injection, schedule: Q01DX007 (ip), vehicle: saline); 78 % of control (dose: 150.0 mg/kg/injection, schedule: Q01DX007 (ip), vehicle: saline). For the same molecule, the T/C was 84 % of control (dose: 166.0 mg/kg/injection, schedule: Q01DX007 (ip), vehicle: saline); 9 % of control (dose: 500.0 mg/kg/injection, schedule: Q01DX007 (ip), vehicle: saline); 20 % of control (dose: 750.0 mg/kg/injection, schedule: Q01DX007 (ip), vehicle: saline).
For the molecule `CCNc1nncs1`, the T/C is 59 % of control (dose: 13.7 mg/kg/injection, schedule: Q01DX007 (ip), vehicle: carboxymethylcellulose (CMC)); 97 % of control and 108 % of control (dose: 16.37 mg/kg/injection, schedule: Q01DX007 (ip), vehicle: carboxymethylcellulose (CMC)); 58 % of control (dose: 27.5 mg/kg/injection, schedule: Q01DX007 (ip), vehicle: carboxymethylcellulose (CMC)); 75 % of control and 98 % of control (dose: 32.75 mg/kg/injection, schedule: Q01DX007 (ip), vehicle: carboxymethylcellulose (CMC)); 47 % of control (dose: 55.0 mg/kg/injection, schedule: Q01DX007 (ip), vehicle: carboxymethylcellulose (CMC)); 41 % of control (dose: 110.0 mg/kg/injection, schedule: Q01DX007 (ip), vehicle: carboxymethylcellulose (CMC)). For the same molecule, where the note is “dose: 131.0 mg/kg/injection, schedule: Q01DX007 (ip), vehicle: carboxymethylcellulose (CMC)”, the T/C is 46 % of control and 71 % of control.
For `CC(NC(=O)C1(N)CCCC1)C(=O)O` (stereo not drawn), the T/C runs as follows: (dose: 25.0 mg/kg/injection, schedule: Q01DX007 (ip), vehicle: carboxymethylcellulose (CMC)) 91 % of control; (dose: 100.0 mg/kg/injection, schedule: Q01DX007 (ip), vehicle: carboxymethylcellulose (CMC)) 21 % of control; (dose: 222.0 mg/kg/injection, schedule: Q01DX007 (ip), vehicle: steriod suspending solution) 36 % of control; (dose: 333.0 mg/kg/injection, schedule: Q01DX007 (ip), vehicle: steriod suspending solution) 25 % of control.
